# Source: paper PMC4805166, “Synthetic Cyclolipopeptides Selective against Microbial, Plant and Animal Cell Targets by Incorporation of D-Amino Acids or Histidine” (PLoS ONE, 2016)
# “And” between values parts separate entries of the source, which are not always exact repeats. Equal entries are not always repeated. Where two headings read alike, the source gives them in different places. Where a SMILES comes first, the peptide text is derived from it. [ ]: non-standard residue; d: D form. The star is where a group is joined. Oleoyl = CCCCCCCC/C=C\CCCCCCCC(=O)*; Palmitoyl = CCCCCCCCCCCCCCCC(=O)*; Lauroyl = CCCCCCCCCCCC(=O)*; Octanoyl = CCCCCCCC(=O)*; X1 = O=C(CCCCCCCCCCCO)*; Hexanoyl = CCCCCC(=O)*; Pentanoyl = CCCCC(=O)*; Butyryl = CCCC(=O)*
# Key:
# [1] = tested on: Pseudomonas syringae pv. syringae EPS94; type: cell-based; conditions: 48 h
# Method: (§1) The following plant pathogenic bacterial strains were used: Erwinia amylovora PMV6076 (Institut National de la Recherche Agronomique, Angers, France), Pseudomonas syringae pv. syringae EPS94 (Institut de Tecnologia Agroalimentària, Universitat de Girona, Spain) and Xanthomonas axonopodis pv. vesicatoria 2133–2 (Instituto Valenciano de Investigaciones Agrarias, Valencia, Spain). All bacteria were stored in Luria Bertani (LB) broth supplemented with glycerol (20%) and maintained at -80°C. Bacteria were scrapped from LB agar after growing for 24–48 h at 25°C. The cell material was suspended in sterile water to obtain a suspension of 10^8 CFU mL^-1.
# (§2) Lyophilized peptides were solubilized in sterile Milli-Q water to a final concentration of 1 mM and filter sterilized through a 0.22-μm pore filter. For minimum inhibitory concentration (MIC) assessment, dilutions of the compounds were made to obtain a stock concentration of […]. For antibacterial activity twenty microlitres of each dilution were mixed in a microtiter plate well with 20 μL of the corresponding suspension of the bacterial indicator, 160 μL of Trypticase Soy Broth (TSB) (BioMèrieux, France) to a total volume of 200 μL. For antifungal activity 20 μL of each stock solution were mixed in a microtiter plate well with 80 μL of the corresponding suspension of the fungal pathogen and 100 μL of double concentrated PDB to a total volume of 200 μL containing 0.003% w/v of choramphenicol.
# (§3) Three replicates for each strain, compound and concentration were used. Microbial growth was determined by optical density measurement at 600 nm (Bioscreen C, Labsystem, Helsinki, Finland). For antibacterial activity microplates were incubated at 25°C with 20 sec shaking before hourly absorbance measurement for 48 h. For antifungal activity microplates were incubated at 20°C with 1 min shaking before absorbance measurement that were done every two hours during seven days. The experiment was repeated twice. The MIC was taken as the lowest compound concentration with no growth at the end of the experiment.
# [2] = tested on: Xanthomonas axonopodis pv. vesicatoria 2133–2; type: cell-based; conditions: TSB, 25°C, 48 h, OD 600 nm; tested at 3.1, 6.2, 12.5, 25, 50 μM; three replicates, experiment repeated twice; MIC = lowest concentration with no growth
# Method: as §1, §2, §3
# [3] = tested on: Erwinia amylovora PMV6076; assay: MIC, in vitro growth inhibition; type: cell-based; conditions: TSB, 25°C, 48 h, OD 600 nm; tested at 3.1, 6.2, 12.5, 25, 50 μM; three replicates, experiment repeated twice; MIC = lowest concentration with no growth
# Method: as §1, §2, §3
# [4] = tested on: erythrocyte suspensions of horse blood; conditions: horse erythrocytes 5% vol/vol, TRIS buffer pH 7.2, 1 h at 37°C, absorbance 540 nm, relative to melittin 100 μM, ± confidence interval (α = 0.05); for Hemolysis (%) 150 µM: 150 µM peptide; for Hemolysis (%) 250 µM: 250 µM peptide;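 as to all read-outs here: Read-out is hemoglobin release into the supernatant, with a buffer-only blank subtracted as the 0% baseline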
# Method: Blood was centrifuged at 6000g for 5 min, washed three times with TRIS buffer (10 mM TRIS, 150 mM NaCl, pH 7.2) and diluted.
# Compounds were solubilized in TRIS buffer and mixed with horse erythrocytes and the final concentrations tested were 250 and 150 μM. The mixture was incubated under continuous shaking for 1 h at 37°C. Then, the tubes were centrifuged at 3500g for 10 min, 80 μL aliquots of the supernatant transferred to 100-well microplates (Bioscreen), diluted with 80 μL water, and the absorbance measured at 540 nm (Bioscreen). Complete hemolysis was obtained by the addition of melittin at 100 μM (Sigma-Aldrich Corporation, Madrid, Spain). The percentage of hemolysis (H) was calculated using the equation: H = 100×[(Op−Ob)/(Om−Ob)], where Op was the density for a given compound concentration, Ob for the buffer, and Om for the melittin positive control.
# [5] = tested on: Fusarium oxysporum f. sp. lycopersici FOL 3 race 2; assay: MIC, antifungal growth inhibition; type: cell-based
# Method: Fusarium oxysporum f. sp. lycopersici FOL 3 race 2 (ATCC 201829, American Type Culture Collection) was used as fungal pathogen. The strain was cultured on potato dextrose agar (PDA) plates (Difco) and microconidia were obtained after growth at 25°C. The concentration of conidia was determined using a hemacytometer and adjusted to 10^4 conidia mL^-1.
# as §2, §3
# [6] = PDB with 0.003% chloramphenicol, 20°C, seven days, OD 600 nm, tested at 3.1, 6.2, 12.5, 25, 50 μM, three replicates, repeated twice
Molecule,MIC Pss [1] [µM],MIC Xav [2] [µM],MIC Ea [3] [µM],Hemolysis (%) 150 µM [4] [%],Hemolysis (%) 250 µM [4] [%],"MIC Fo [5, 6]",MIC Fo [5] [µM],"MIC Pss ([1]; TSB, 25°C, OD 600 nm, tested at 3.1, 6.2, 12.5, 25, 50 μM, three replicates, experiment repeated twice, MIC = lowest concentration with no growth) [µM]"
"CCCCCCCC(=O)NCCCC[C@@H]1NC(=O)[C@H](CCCCN)NC(=O)[C@H](CC(C)C)NC(=O)[C@H](CCCCN)NC(=O)[C@H](CCCCN)NC(=O)[C@H](CCC(N)=O)NC(=O)[C@H](CC(C)C)NC(=O)[C@H](CCCCN)NC(=O)[C@H](CCCCN)NC(=O)[C@H](Cc2ccccc2)NC1=O [BPC498, c(KKLKK(CO-C7H15)FKKLQ)] (cyclo(FKKLQKKLKK(Octanoyl)))",12.5 to 25,6.2 to 12.5,25 to 50,78 ± 4,100 ± 12,3.1 to 6.2 µM,–,–
"CCCCCCCCCCCCCCCC(=O)NCCCC[C@@H]1NC(=O)[C@H](CCCCN)NC(=O)[C@H](CC(C)C)NC(=O)[C@H](CCCCN)NC(=O)[C@H](CCCCN)NC(=O)[C@H](CCC(N)=O)NC(=O)[C@H](CC(C)C)NC(=O)[C@H](CCCCN)NC(=O)[C@H](CCCCN)NC(=O)[C@H](Cc2ccccc2)NC1=O [BPC502, c(KKLKK(CO-C15H31)FKKLQ)] (cyclo(FKKLQKKLKK(Palmitoyl)))",>50,>50,>50,78 ± 1,99 ± 2,>50 µM,–,–
"CC(C)C[C@@H]1NC(=O)[C@H](CCCCN)NC(=O)[C@H](CCCCN)NC(=O)[C@H](CCC(N)=O)NC(=O)[C@H](CC(C)C)NC(=O)[C@H](CCCCN)NC(=O)[C@H](CCCCN)NC(=O)[C@H](Cc2ccccc2)NC(=O)[C@H](CCCCNC(=O)CCCCCCCCCCCO)NC(=O)[C@H](CCCCN)NC1=O [BPC524, c(KKLKK(CO-C11H22OH)FKKLQ)] (cyclo(FKKLQKKLKK(X1)))",12.5 to 25,6.2 to 12.5,25 to 50,100 ± 8,100 ± 6,12.5 to 25 µM,–,–
"CCCCC(=O)NCCCC[C@@H]1NC(=O)[C@H](CCCCN)NC(=O)[C@H](CC(C)C)NC(=O)[C@H](CCCCN)NC(=O)[C@H](CCCCN)NC(=O)[C@H](CCC(N)=O)NC(=O)[C@H](CC(C)C)NC(=O)[C@H](CCCCN)NC(=O)[C@H](CCCCN)NC(=O)[C@H](Cc2ccccc2)NC1=O [BPC526, c(KKLKK(CO-C4H9)FKKLQ)] (cyclo(FKKLQKKLKK(Pentanoyl)))",12.5 to 25,<3.1,12.5 to 25,62 ± 2,78 ± 3,6.2 to 12.5 µM,–,–
"CCCCCCCCCCCC(=O)NCCCC[C@@H]1NC(=O)[C@H](CCCCN)NC(=O)[C@H](CC(C)C)NC(=O)[C@H](CCCCN)NC(=O)[C@H](CCCCN)NC(=O)[C@H](CCC(N)=O)NC(=O)[C@H](CC(C)C)NC(=O)[C@H](CCCCN)NC(=O)[C@H](CCCCN)NC(=O)[C@H](Cc2ccccc2)NC1=O [BPC530, c(KKLKK(CO-C11H23)FKKLQ)] (cyclo(FKKLQKKLKK(Lauroyl)))",12.5 to 25,6.2 to 12.5,12.5 to 25,89 ± 7,91 ± 9,6.2 to 12.5 µM,–,–
CCCCCC(=O)NCCCC[C@@H]1NC(=O)[C@H](CCCCN)NC(=O)[C@H](Cc2ccccc2)NC(=O)[C@H](CCCCN)NC(=O)[C@H](CCCCN)NC(=O)[C@H](CC(C)C)NC(=O)[C@H](CCCCN)NC(=O)[C@H](CCCCN)NC(=O)[C@H](CCC(N)=O)NC(=O)[C@H](CC(C)C)NC1=O [BPC582] (cyclo(FKK(Hexanoyl)LQKKLKK)),6.2 to 12.5,6.2 to 12.5,12.5 to 25,92 ± 3,96 ± 10,12.5 to 25 µM,–,–
"CCCCCC(=O)NCCCC[C@@H]1NC(=O)[C@H](Cc2ccccc2)NC(=O)[C@H](CCCCN)NC(=O)[C@H](CCCCN)NC(=O)[C@H](CC(C)C)NC(=O)[C@H](CCCCN)NC(=O)[C@H](CCCCN)NC(=O)[C@H](CCC(N)=O)NC(=O)[C@H](CC(C)C)NC(=O)[C@H](CCCCN)NC1=O [BPC584, c(KKLKKFK(CO-nC5H11)KLQ)] (cyclo(FK(Hexanoyl)KLQKKLKK))",12.5 to 25,6.2 to 12.5,25 to 50,72 ± 5,97 ± 12,25 to 50 µM,–,–
"CCCCCC(=O)NCCCC[C@@H]1NC(=O)[C@H](CC(C)C)NC(=O)[C@H](CCCCN)NC(=O)[C@H](CCCCN)NC(=O)[C@H](CCC(N)=O)NC(=O)[C@H](CC(C)C)NC(=O)[C@H](CCCCN)NC(=O)[C@H](CCCCN)NC(=O)[C@H](Cc2ccccc2)NC(=O)[C@H](CCCCN)NC1=O [BPC586, c(KKLK(CO-nC5H11)KFKKLQ)] (cyclo(FKKLQKKLK(Hexanoyl)K))",6.2 to 12.5,6.2 to 12.5,12.5 to 25,92 ± 9,95 ± 20,12.5 to 25 µM,–,–
"CCCCCCCC/C=C\CCCCCCCC(=O)NCCCC[C@@H]1NC(=O)[C@H](CCCCN)NC(=O)[C@H](CC(C)C)NC(=O)[C@H](CCCCN)NC(=O)[C@H](CCCCN)NC(=O)[C@H](CCC(N)=O)NC(=O)[C@H](CC(C)C)NC(=O)[C@H](CCCCN)NC(=O)[C@H](CCCCN)NC(=O)[C@H](Cc2ccccc2)NC1=O [BPC622, c(KKLKK(CO-C17H33)FKKLQ)] (cyclo(FKKLQKKLKK(Oleoyl)))",25 to 50,3.1 to 6.2,>50,91 ± 2,97 ± 3,>50 µM,–,–
"CCCCCC(=O)NCCCC[C@@H]1NC(=O)[C@H](CCCCN)NC(=O)[C@H](CC(C)C)NC(=O)[C@H](CCCCN)NC(=O)[C@H](CCCCN)NC(=O)[C@H](CCC(N)=O)NC(=O)[C@H](CC(C)C)NC(=O)[C@H](CCCCN)NC(=O)[C@H](CCCCN)NC(=O)[C@@H](Cc2ccccc2)NC1=O [BPC624, c(KKLKK(CO-nC5H11)fKKLQ)] (cyclo(KKLKK(Hexanoyl)[dF]KKLQ))",12.5 to 25,6.2 to 12.5,25 to 50,53 ± 5,64 ± 9,6.2 to 12.5 µM,–,–
"CCCC(=O)NCCCC[C@H]1NC(=O)[C@H](CCCCN)NC(=O)[C@H](CC(C)C)NC(=O)[C@H](CCCCN)NC(=O)[C@H](CCCCN)NC(=O)[C@H](CCC(N)=O)NC(=O)[C@H](CC(C)C)NC(=O)[C@H](CCCCN)NC(=O)[C@H](CCCCN)NC(=O)[C@H](Cc2ccccc2)NC1=O [BPC702, c(KKLKk(CO-C3H7)FKKLQ)] (cyclo(FKKLQKKLK[dK](Butyryl)))",–,–,25 to 50,1 ± 0.1,–,< 12.5 µM and 3.1 to 6.2 µM,3.1 to 6.2,–
c(KKLKK(CO-C6H13)FKKLQ) [BPC592],–,6.2 to 12.5,25 to 50,–,–,12.5 to 25 µM,–,12.5 to 25
